Where a name gives a salt, the structure may show the parent alone. Read-outs that look alike come from different tables or passages of the source.
What was measured:
MAO-B = target: T1, MAO-B (Rattus norvegicus, UniProt P19643); experiment: Inhibition of MAO activity following sub-acute administration to rats; format: in vivo; set-up: from tissue; host or cells: rat brain, liver and intestine; conditions: sc, read-out: % MAO-B inhibition, Intestine, dose head prints 25 mg/kg (6 mg/kg sc) daily for 14 days
T1 sequence (P19643 1-520): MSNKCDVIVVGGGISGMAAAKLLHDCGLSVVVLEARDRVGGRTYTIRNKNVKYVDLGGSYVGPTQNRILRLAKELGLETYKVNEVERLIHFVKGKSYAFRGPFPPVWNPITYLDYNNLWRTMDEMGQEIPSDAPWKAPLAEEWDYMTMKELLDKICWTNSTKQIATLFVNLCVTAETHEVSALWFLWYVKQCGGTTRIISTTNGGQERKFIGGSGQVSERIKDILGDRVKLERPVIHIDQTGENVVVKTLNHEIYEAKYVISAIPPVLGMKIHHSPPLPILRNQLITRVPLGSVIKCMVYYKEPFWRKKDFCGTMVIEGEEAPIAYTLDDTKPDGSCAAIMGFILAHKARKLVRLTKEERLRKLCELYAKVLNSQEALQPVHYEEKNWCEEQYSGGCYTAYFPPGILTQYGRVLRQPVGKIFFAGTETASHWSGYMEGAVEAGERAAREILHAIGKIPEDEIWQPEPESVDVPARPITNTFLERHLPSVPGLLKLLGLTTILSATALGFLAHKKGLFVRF
Experimental: Substrate concentrations used were 50 μM (PEA) and 1 mM (5-HT).
Male Sabra mice, weighing 45-50 g were injected with test compound solutions (prepared in 0.9% saline). Each dose was administered to two or three mice. The mice were sacrificed two hours after drug administration or at a time corresponding to the peak AChE inhibition time (see Table 11). The brain and liver were rapidly dissected and stored in appropriate vials on ice. The tissues were weighed, diluted to ½ in sucrose 0.3M and stored at −20° C. before performance of the MAO assay described above. The results given in Table 11 relate to measurements made on brain tissue only.
Experiments were done in Sprague Dawley male rats. […] At the end of this period animals were sacrificed and MAO levels determined in the brain, liver and intestines.

[1] = test system: Middle Cerebral Artery Occlusion (MCA-O) in Male Wistar Rats
Experimental: Male Wistar rats (Olac England-Jerusalem) 300-400 g each were anesthetized with a solution of Equitesine administered i.p. at a dose of 3 ml/kg. Equitesine consists of 13.5 ml sodium pentothal solution (60 mg/ml), 3.5 g chloral hydrate, 1.75 g MgSO4, 33 ml propylene glycol, 8.3 ml absolute alcohol, made up to 83 ml with distilled water.
The dura matter was opened carefully using a 27 gauge needle The MCA was permanently occluded by microbipolar coagulation at low power setting, beginning 2-3 mm medial to the olfactory tract between its cortical branch to the rhinal cortex and the laterate striate arteries. After coagulation, the MCA was severed with microscissors and divided to ensure complete occlusion. Following this, the temporalis muscle was sutured and laid over the craniectomy site. The skin was closed with a running 3-0 silk suture. A sham craniectomy operation was performed on a parallel group of rats, but without cauterization of the MCA.
At 24 and 48 hours post surgery a neurological score was taken in order to assess the severity of the injury in the drug-treated rats with respect to their untreated controls.
Drugs were administered as an s.c. injection, according to the following schedule:
The scale runs from 0 (fully normal rats) to 13 (fully incapacitated rats). Most parameters are rated as either 0 (normal), or 1 (incapacitated) others are graded. […]

C#CCNC1CCc2ccc(OC(=O)N(C)C)cc21 (stereo not drawn) [Compound 24, 6-(N,N-Dimethylcarbamyloxy)-N-propargyl aminoindan mesylate]
inhibition at 6 mg/kg (MAO-B): 0%
ΔNSS (difference measured at 24 hours and 48 hours) ([1]; s.c. […] 15 minutes prior to MCA-O and 6.5 mg/kg 2 hours post MCA-O): 1.625

C#CCNC1CCc2ccc(OC(=O)N(C)CC)cc21 (stereo not drawn) [Compound 25, 6-(N-Me, N-Etcarbamyloxy) N-propargyl aminoindan, HCl]
ΔNSS (difference measured at 24 hours and 48 hours) ([1]; s.c. 43 mg/kg 90 minutes prior to MCA-O and 30 mg/kg 3 hours post MCA-O): 1.78
